Key:
Interstitial collagenase = target: T1, Interstitial collagenase (Homo sapiens, UniProt P03956); experiment: Inhibition of matrix metalloprotease-1
T1 sequence (P03956 whole entry): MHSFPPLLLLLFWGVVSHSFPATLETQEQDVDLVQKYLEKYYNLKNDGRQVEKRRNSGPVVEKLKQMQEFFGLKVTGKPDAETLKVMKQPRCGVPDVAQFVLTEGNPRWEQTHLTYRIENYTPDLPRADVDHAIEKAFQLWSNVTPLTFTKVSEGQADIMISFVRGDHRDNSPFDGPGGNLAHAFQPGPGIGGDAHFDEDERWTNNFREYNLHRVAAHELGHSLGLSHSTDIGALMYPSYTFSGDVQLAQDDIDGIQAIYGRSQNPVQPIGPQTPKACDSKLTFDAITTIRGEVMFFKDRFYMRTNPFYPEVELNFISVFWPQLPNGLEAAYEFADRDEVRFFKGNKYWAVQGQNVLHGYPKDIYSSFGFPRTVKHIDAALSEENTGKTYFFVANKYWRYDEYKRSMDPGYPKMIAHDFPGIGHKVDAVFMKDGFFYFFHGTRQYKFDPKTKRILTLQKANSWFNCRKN

[1] = target: 72 kDa type IV collagenase (Homo sapiens, UniProt P08253); experiment: Inhibition of Matrix metalloprotease-2
72 kDa type IV collagenase, sequence (P08253 whole entry): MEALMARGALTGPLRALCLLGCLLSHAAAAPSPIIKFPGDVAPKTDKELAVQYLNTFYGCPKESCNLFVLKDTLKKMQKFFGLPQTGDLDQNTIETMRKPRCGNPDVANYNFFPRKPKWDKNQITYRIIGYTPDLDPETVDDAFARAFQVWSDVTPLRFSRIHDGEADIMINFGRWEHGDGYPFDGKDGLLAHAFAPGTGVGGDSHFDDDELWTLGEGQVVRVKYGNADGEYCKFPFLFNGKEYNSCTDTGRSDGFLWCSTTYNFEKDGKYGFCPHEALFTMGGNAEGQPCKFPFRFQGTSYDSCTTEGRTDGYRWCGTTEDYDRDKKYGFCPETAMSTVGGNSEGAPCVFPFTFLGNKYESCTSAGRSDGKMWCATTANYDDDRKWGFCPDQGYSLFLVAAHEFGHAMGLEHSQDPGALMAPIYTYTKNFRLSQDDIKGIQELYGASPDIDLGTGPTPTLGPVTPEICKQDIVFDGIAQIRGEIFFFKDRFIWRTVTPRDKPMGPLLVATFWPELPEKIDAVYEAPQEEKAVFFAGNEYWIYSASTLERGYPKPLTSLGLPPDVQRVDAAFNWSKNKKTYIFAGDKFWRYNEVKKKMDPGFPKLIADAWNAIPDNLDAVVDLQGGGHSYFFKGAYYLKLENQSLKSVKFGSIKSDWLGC

| SMILES | IC50 (Interstitial collagenase) | IC50 [1] |
| --- | --- | --- |
| CNC(=O)[C@H](Cc1c[nH]c2ccccc12)NC(=O)[C@@H](CC(=O)c1ccc[nH]1)CC(C)C | 860 nM | 540 nM |
| CNC(=O)C(Cc1c[nH]c2ccccc12)NC(=O)[C@@H](CC(=O)Nc1ccccn1)CC(C)C (stereo partly specified) | 60 nM | 50 nM |
| CNC(=O)C(Cc1c[nH]c2ccccc12)NC(=O)[C@@H](CC(=O)O)CC(C)C (stereo partly specified) |  | 20 nM |
| CNC(=O)C(Cc1c[nH]c2ccccc12)NC(=O)[C@@H](CC(=O)NNS(=O)(=O)c1ccc(C)cc1)CC(C)C (stereo partly specified) | > 10000 nM | 30 nM |

More lines, in order of falling IC50 [1], values ahead:

| IC50 (Interstitial collagenase) | IC50 [1] | SMILES |
| --- | --- | --- |
| 50 nM | 550 nM | CNC(=O)C(Cc1c[nH]c2ccccc12)NC(=O)[C@@H](CC(=O)NN)CC(C)C (stereo partly specified) |
| 730 nM | 180 nM | CNC(=O)[C@H](Cc1c[nH]c2ccccc12)NC(=O)[C@@H](CC(=O)c1ccccn1)CC(C)C |

— ChEMBL document CHEMBL1146610, “Improved gelatinase a selectivity by novel zinc binding groups containing galardin derivatives” (Bioorg Med Chem Lett, 2003)
